From patent publication US20260256923A1, “NEW RECRUITMENT ELEMENT OF UBIQUITIN LIGASE AND USE THEREOF” (SHENZHEN LINGGENE BIOTECH CO., LTD., priority 2023, published 2026)

How the values were obtained:
[1] = target: T1, interaction between NCL and MDM2 (Homo sapiens, UniProt P19338); assay: Co-immunoprecipitation of NCL and MDM2 from HeLa cell lysate, western blot; type: binding; conditions: 0-20 μM, 4° C. 6 h, IP with antibody against NCL
T1 construct: HeLa cervical cancer cells were lysed with an IP lysis solution; endogenous in cells; host or cells: HeLa cell lysate
T1 sequence (P19338 2-710 limits assumed): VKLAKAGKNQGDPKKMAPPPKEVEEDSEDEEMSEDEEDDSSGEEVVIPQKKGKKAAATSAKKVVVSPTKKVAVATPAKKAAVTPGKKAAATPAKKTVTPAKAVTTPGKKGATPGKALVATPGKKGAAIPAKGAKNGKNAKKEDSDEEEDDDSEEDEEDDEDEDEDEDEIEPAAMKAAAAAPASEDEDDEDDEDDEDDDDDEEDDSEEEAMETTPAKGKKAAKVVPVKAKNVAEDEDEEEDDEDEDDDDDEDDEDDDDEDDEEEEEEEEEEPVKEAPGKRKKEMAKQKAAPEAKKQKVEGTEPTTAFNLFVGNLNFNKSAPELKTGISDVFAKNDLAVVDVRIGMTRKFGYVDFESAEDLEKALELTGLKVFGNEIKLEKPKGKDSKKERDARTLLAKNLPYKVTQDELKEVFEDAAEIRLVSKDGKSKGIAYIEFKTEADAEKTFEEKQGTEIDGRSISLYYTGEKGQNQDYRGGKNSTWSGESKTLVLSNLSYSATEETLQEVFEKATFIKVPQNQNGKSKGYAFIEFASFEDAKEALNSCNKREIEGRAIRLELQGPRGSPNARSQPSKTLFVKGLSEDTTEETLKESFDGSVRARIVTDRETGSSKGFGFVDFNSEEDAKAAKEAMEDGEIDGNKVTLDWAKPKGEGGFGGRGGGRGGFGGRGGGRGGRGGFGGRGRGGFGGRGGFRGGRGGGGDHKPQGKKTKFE
Method: Co-immunoprecipitation (Co-IP) is a classical method for the study of protein interactions based on the specific interaction between an antibody and an antigen. It is an effective method to determine the physiological interaction between two proteins in intact cells.
HeLa cervical cancer cells were lysed with an IP lysis solution (purchased from Thermo Scientific, Cat. No.: 87788) and then incubated with AS 1411 or iSN04 at different concentrations (0 μM, 1 μM, 5 μM, 10 μM, and 20 μM) at 4° C. for 6 h. Subsequently, […] of an antibody against NCL was added, and the mixture was further incubated at 4° C. overnight. Protein A/G magnetic beads (purchased from Thermo Scientific, Cat. No.: 88802) were added, and the mixture was incubated with rotation at room temperature for 1.5 h. The bound NCL and its interacting proteins on the magnetic beads were washed with an IP lysis buffer (purchased from Thermo Scientific, Cat. No.: 87788), and an SDS-PAGE protein loading buffer (purchased from Beyotime, Cat. No.: P0015) was added. The mixture was heated to 100° C. and held for 10 min. The magnetic beads were adsorbed on a magnetic rack, and the supernatant was transferred into a new tube. Subsequently, western blot assay was performed to detect whether NCL bound to MDM2 and whether the binding was affected by AS 1411 or iSN04. […]

[2] = system: HeLa cervical cancer cells; assay: Binding of Cy5-labeled oligonucleotide to HeLa cells, flow cytometer; type: cell-based; conditions: 500 nM Cy5-labeled, 1.5 h
Method: When AS1411 was selected as the GRO, the model analysis for AS1411 as the novel recruitment element of MDM2 and a PROTAC constructed by using AS1411 as the novel recruitment element of MDM2 was specifically as follows: Since NCL is highly expressed in tumor cells and specifically distributed on the surface of tumor cells, the binding ability of AS1411 to HeLa cervical cancer cells was examined. HeLa cells were incubated with 500 nM CRO (cytosine-rich oligonucleotide, negative control) and AS1411 labeled by Cy5 for 1.5 h. […] AS1411 is set forth in SEQ ID NO: 1, and the sequence of the CRO is set forth in SEQ ID NO: 13.

[3] = system: MCF 10A human normal mammary epithelial cells; assay: Toxicity to normal cells, cell apoptosis proportion by flow cytometer; type: cell-based; conditions: 0-5000 nM, 4 days, medium renewed every day
Method: The toxicity of AS1411 to normal cells was compared with that of the small molecule ligand nutlin-3a of MDM2 to normal cells. AS1411 or nutlin-3a at different concentrations (0 nM, 500 nM, 1000 nM, and 5000 nM) was incubated with MCF 10A human normal mammary epithelial cells for 4 days, and the medium containing the respective concentrations of AS1411 or nutlin-3a was renewed every day. The cell apoptosis proportion was detected using a flow cytometer.

[4] = phase I and phase II clinical trials; cited from earlier work
MDM2 = MDM2 (Homo sapiens, UniProt Q00987); assay: Biotin-oligonucleotide pull-down from HeLa cell lysate, western blot (MDM2); type: binding; design: HeLa cervical cancer cells were lysed with an IP lysis solution; endogenous in cells; host or cells: HeLa; conditions: 5′-biotin label, 0 nM-20 μM
Chain of MDM2 (P19338 2-710 partner limits assumed): as the sequence (P19338 2-710 limits assumed) above
Chain of MDM2 (Q00987 whole entry): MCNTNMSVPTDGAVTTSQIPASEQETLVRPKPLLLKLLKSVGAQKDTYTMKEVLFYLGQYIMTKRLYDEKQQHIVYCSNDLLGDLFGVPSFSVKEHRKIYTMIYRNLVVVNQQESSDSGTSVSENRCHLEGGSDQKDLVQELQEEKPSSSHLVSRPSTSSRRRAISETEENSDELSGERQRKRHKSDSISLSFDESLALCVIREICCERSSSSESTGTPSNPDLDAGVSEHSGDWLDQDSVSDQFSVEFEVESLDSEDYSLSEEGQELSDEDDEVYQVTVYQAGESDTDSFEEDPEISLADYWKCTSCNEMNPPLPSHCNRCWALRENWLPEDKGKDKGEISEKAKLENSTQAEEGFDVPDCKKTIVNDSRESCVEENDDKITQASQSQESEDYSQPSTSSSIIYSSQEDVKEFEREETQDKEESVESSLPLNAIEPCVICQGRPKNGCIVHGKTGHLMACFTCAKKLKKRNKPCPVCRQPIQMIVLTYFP
Method: HeLa cervical cancer cells were lysed with an IP lysis solution (purchased from Thermo Scientific, Cat. No.: 87788) and then incubated with a CRO (cytosine-rich oligonucleotide, negative control, SEQ ID NO: 13), AS1411, or iSN04 labeled by biotin at the 5′ end at different concentrations (0 nM, 200 nM, 500 nM, 1 μM, 5 μM, 10 μM, and 20 μM) at 4° C. for 6h. Subsequently, streptavidin agarose gel beads (purchased from cytiva, Cat. No.: 17511301) were added, and the mixture was further incubated at 4° C. overnight. After the bound biotin-labeled CRO, AS411, or iSN04 and its captured proteins on the gel beads were washed multiple times with an IP lysis buffer (purchased from Thermo Scientific, Cat. No.: 87788), an SDS-PAGE protein loading buffer (purchased from Beyotime, Cat. No.: P0015) was added, and the mixture was heated to 100° C. and held for 10 min. After centrifugation, the supernatant was collected as a pull-down product. The pull-down product was detected by western blot assay.

Substance: AS1411: DNA aptamer, GRO binding NCL, SEQ ID NO: 1: 5′-GGTGGTGGTGGTTGTGGTGGTGGTGG-3′
- effect on the interaction between NCL and MDM2 [1]: does not affect the interaction between NCL and MDM2
- binding ability to HeLa cells [2]: can significantly bind to HeLa cells
- toxicity to normal cells (cell apoptosis proportion) [3]: has no significant toxicity
- safety in clinical trials [4]: good safety
- capture of MDM2 (MDM2): can capture NCL and MDM2 in a concentration-dependent manner
